# Legend:
# Type in all cases: in vivo, C57BL/6 mice
# [1] = tested on: mouse model of ConA hepatitis; assay: Survival rate of hepatitis mouse model of ConA; details: ConA 25 mg/kg i.v.; drug by gavage (compatibility 7 g/kg, Cimicifugae rhizoma 2 g/kg, total phenolic acid 300 mg/kg crude drug, isoferulic acid 5 mg/kg); observed at 96 h; model group 20%
# Source text: Test materials: ConA was purchased from Sigma; isoferulic acid was purchased from Tianjin Fangfang Technology Co., Ltd.
# Animals: C57BL/6 mice, purchased from Beijing Huafukang Biotechnology Co., Ltd.
# Grouping: 50 C57BL/6 mice, male, 18-20 g, after 1 day of adaptive breeding, the mice were randomly divided into 5 groups of 10 in each group: ConA model group, Cimicifugae rhizoma compatibility group, Cimicifugae rhizoma group, Cimicifugae rhizoma total phenolic acid group and isoferulic acid group.
# Model preparation and drug administration: 150 mg of ConA powder were weighed and dissolved in 40 mL of sterile PBS and left at room temperature for 1 to 2 hours; the solution was intermittently shaken gently to mix well. Low temperature ultrasound promoted dissolution (no more than 5 min each time) and avoided excessive foaming. After the solution was fully dissolved, the volume was adjusted to 50 mL, prepared to a concentration of 3 mg/mL, and filtered under pressure with a 0.45 μm filter. Mice were given a single intravenous injection at 25 mg/kg, with 100 μL per mouse. […]
# Body weight of CIA mice = details: day 21 of the second immunization; MEAN ± SEM
# Source text: The test materials and animals were the same as those in Experimental Example 3.
# Model preparation and administration: same as in Experimental Example 3. On day 21 of the second immunization, the mice were weighed.
# [2] = tested on: anti-type II collagen antibody; assay: Serum anti-type II collagen antibody content in CIA mice (ELISA); details: 21 days after second immunization
# Source text: (§1) Test materials and animals: Consistent with Experimental Example 3. Anti-type II collagen antibody ELISA kit was purchased from Chondrex, Cytokine & Chemokine 36-Plex Mouse ProcartaPlex™ Panel 1A cytokine and chemokine detection kit was purchased from ThermoFisher.
# (§2) Model preparation and drug administration: the drug dosage of each treatment group was the same as that of Experimental Example 3. After 21 days of the second immunization, the mice were anesthetized.
# (2) The effects of each drug group on the anti-type II collagen antibody content in the serum of CIA mice were measured. Seven mice from each group were examined; peripheral blood was collected and separated from serum. Anti-type II collagen antibodies were detected with Elisa.
# [3] = tested on: joint tissue cytokines IL-9, IL-18 and MIP-2; assay: Joint tissue cytokines in CIA arthritis mice (multi-factor detection); details: MEAN ± SEM
# Source text: as §1, §2
# (3) The effects of each drug group on cytokine secretion in serum and joint tissues of CIA mice were measured. Seven mice from each group were examined; peripheral blood was collected and separated from serum. Cytokines in serum were detected by multiple factors: IFN-γ, IL-6, IL-9, IL-12, IL-17A, IP-10, MCP-1, MCP-3. MIP-1α, MIP-1β, Eotaxin, and G-CSF; the right hind limb knees, joints and claws were taken and stored in liquid nitrogen for quick freezing, then homogenized and extracted protein. Multi-factor detection of cytokines in tissues: IL-9, IL-18 and MIP-2 secretion.
# [4] = tested on: granulocytes and NK cells; assay: Proliferation (Ki-67) of granulocytes and NK cells in CIA arthritis mice (flow cytometry); details: intracellular Ki-67 expression; 21 days after second immunization; MEAN ± SEM
# Source text: Test materials and animals: CD3-PerCP, NK1.1-APC antibody, Ki67-PE antibody, Intracellular Fixation & Permeabilization Buffer Set were purchased from eBioscience; CD48 PE, CD11b FITC and B220-FITC antibodies were purchased from BD Pharmingen company; other required reagents were the same as in Example 7.
# Model preparation and drug administration: the administration dose of each treatment group was the same as that of Experimental Example 3. 21 days after the second immunization, the mice were anesthetized.
# Animal: C57BL/6 mice, purchased from Beijing Huafukang Biotechnology Co., Ltd.
# The proliferation capacity of the spleen Ki-67 expression response cell was detected by flow cytometry. Two tubes of spleen single cell suspension were prepared and used to detect the proliferation of CD48^−CD11b^+ positive granulocytes and CD3^−NK1.1^+B220^−NK cells.
# The surface staining procedure was the same as in Experimental Example 7.
# Intracellular staining: after surface staining, intracellular staining was performed: 1) added 100 μL of fixed membrane-breaking solution Fixation Buffer, protected it from light at room temperature, fixed the membrane for 40 min; 2) added 1 mL of Permeabilization Buffer and washed twice, discarded the supernatant 3) added 1 μL of Ki-67-PE antibody at room temperature and protected it from light for 40 min; 4) same as step 2); and 5) used flow cytometer BD Calibar to measure the percentages of intracellular Ki-67 expression in CD48^−CD11b+ positive granulocytes, and CD3^−[…]B220^−NK cells, respectively.
structure (smiles),measurement,setting,value
"COc1ccc(C=CC(=O)O)cc1O [isoferulic acid, 3-hydroxy-4-methoxycinnamic acid]",survival rate of mice,[1],60%
same,Body weight,Body weight of CIA mice,21.6 ± 0.4 g
same,Anti-type II collagen antibody,[2],9610 ± 664 Units/ml
same,Joint tissue IL-9,[3],3.2 ± 1.5 pg/mg
same,Joint tissue IL-18,[3],111.1 ± 125 pg/mg
same,Joint tissue MIP-2,[3],61.2 ± 45.8 pg/mg
same,"Proliferation of Granulocytes, bone marros",[4],27.8 ± 8.2 %
same,"Proliferation of Granulocytes, spleen",[4],26.8 ± 12.5 %
same,"Proliferation of NK cells, spleen",[4],14 ± 9 %

# Source: patent publication US20200108032A1, “USE OF ISOFERULIC ACID, ISOFERULIC ACID-CONTAINING TRADITIONAL CHINESE MEDICINE EXTRACT AND CIMICIFUGAE RHIZOMA” (BEIJING DITAN HOSPITAL, CAPITAL MEDICAL UNIVERSITY, priority 2017, published 2020)
